Assay results from US5159114A, “ACAT inhibitory benzanilides” (Rhone-Poulenc Sante, priority 1989, dated 1992).

What was measured:
plasma cholesterol = assay: In vivo inhibition of increases in plasma cholesterol concentrations in rats fed a cholesterol-supplemented diet; parameters: species or system rat; details: diet supplemented with cholesterol/cholic acid and 0.03% w/w test compound, after 3 days, relative to control animals fed cholesterol diet without drug
[1] = tested on: acyl coenzyme-A:cholesterol-O-acyl transferase (ACAT;EC 2.3.1.26); assay: In vitro inhibition of ACAT in liver microsomes from cholesterol-fed rats, incubated with radiolabelled oleoyl-CoA; format: biochemical; details: 1 μg/ml, rat liver microsomes

Row | SMILES | In-vivo % Inhibition (of increases in plasma cholesterol concentrations) (plasma cholesterol) | In-vitro % Inhibition (degree of ACAT inhibition) [1]
1 | CCCCCCCCCCOc1ccc(C(=O)Nc2cc(C(=O)NCCCC)ccc2SC)cc1 [B, N-(2-methylthio-5-butylaminocarbonyl)phenyl-4-decyloxybenzamide] | 92% | 
2 | CCCCCCCCCCOc1ccc(C(=O)Nc2cc(C(=O)NCCSC)ccc2SC)cc1 [C, N-[2-methylthio-5-(2-methylthioethylaminocarbonyl)]phenyl-4-decyloxybenzamide] | 91% | 98%
3 | CCCCCCCCCCOc1ccc(C(=O)Nc2cc(C(=O)NCCOC)ccc2SC)cc1 [Compound A, N-[2-methylthio-5-(2-methoxyethylaminocarbonyl)]phenyl-4-decyloxybenzamide] | 100% | 82%
4 | CCCCCCCCCCSc1ccc(C(=O)Nc2cc(C(=O)NCCSC)ccc2SC)cc1 [D, N-[2-methylthio-5-(2-methylthioethylaminocarbonyl)]phenyl-4-(decylthio)benzamide] | 100% | 94%
5 | CCCCCCCCCCOc1ccc(C(=O)Nc2cc(C(=O)NCCSC)ccc2OC)cc1 [E, N-[2-methoxy-5-(2-methylthioethylaminocarbonyl)]phenyl-4-decyloxybenzamide] |  | 83%
6 | CCCCCCCCCOc1ccc(C(=O)Nc2cc(C(=O)NCCSC)ccc2OC)cc1 [F, N-[2-methoxy-5-(2-methylthioethylaminocarbonyl)]phenyl-4-nonyloxybenzamide] |  | 87%
7 | CCCCCCCCCCSc1ccc(C(=O)Nc2cc(C(=O)NCCCC)ccc2OC)cc1 [G, N-(2-methoxy-5-butylaminocarbonyl)phenyl-4-(decylthio)benzamide] |  | 91%
